Experimental findings from article PMC8399847, “Hybrid Quinolinyl Phosphonates as Heterocyclic Carboxylate Isosteres: Synthesis and Biological Evaluation against Topoisomerase 1B (TOP1B)” (Pharmaceuticals, 2021) are described below.

One assay has as its system murine splenocytes. Briefly: Splenocyte viability, Alamar Blue. To be noted: for IC50: Mus musculus, Splenocyte, read-out: IC50 Splenocites; for SI (selectivity index): ratio IC50 splenic cells / EC50 amastigotes. The class given is cell-based, BALB/c mice. As for the experimental part:
The viability of splenocytes cells against the different compounds was measured using the Alamar Blue staining method (Invitrogen, MA, USA). For this purpose, these cells were obtained following the protocol indicated in the previous section, from uninfected mice. Plots of absorbance of viable cells (obtained following manufacturer’s recommendations of Alamar Blue) vs compounds concentration were used to calculate CC50 values. Plots were fitted by nonlinear analysis using the Sigma Plot 10.1 statistical package. The assays were performed by triplicate.
The selectivity index for each compound was calculated as the ratio between the IC50 value for splenic cells and the EC50 value for amastigotes.

For another assay, the system named is L. infantum amastigotes. The assay is described as follows: Ex vivo murine splenic explant culture, intramacrophage amastigotes. The class given is cell-based. To be noted: Leishmania infantum, Hec50; intramacrophage amastigotes in splenic explants, 96 h, EC50 ± SD. On the procedure: The effect of the new quinolinylphosphonate derivatives 7 synthesized was assessed on both free-living promastigotes and intramacrophage amastigotes of L. infantum as it is described in experimental protocols. Primary cultures of intramacrophage amastigotes were obtained from splenic explants from 6-weeks infected Balb/c mice with L. infantum-iRFP promastigotes. The infrared fluorescence emitted by both stage forms of the parasite was used as viability criterium, using 0.5% DMSO as negative control (100% viability) and […] AMB as a positive control (0% viability).
The EC50 values of compounds against the amastigote forms were calculated using a cell suspension obtained from spleens extracted from BALB/c mice. Mice had been infected previously with iRFP L. infantum metacyclic promastigotes and sacrificed five weeks after infection. To obtain the cell suspension containing amastigotes, spleens washed with cold phosphate-buffered saline (PBS), were cut into pieces, and incubated with 5 mL of 2 mg/mL collagenase D (Sigma, Darmstadt, Germany), which was prepared in buffer (10 mM HEPES, pH 7.4, 150 mM NaCl, 5 mM KCl, 1 mM MgCl2 and 1.8 mM CaCl2) for 20 min. Subsequently, these cells were passed through a 100 µm cell strainer, collected by centrifugation (500× g for 7 min at 4 °C), washed twice with PBS, and suspended in RPMI medium (Gibco, Thermo Fisher Scientific, MA, USA) supplemented with 10 mM HEPES, 1 mM sodium pyruvate, 1xRPMI 1640 vitamin mix, 10% (v/v) FBS, 50 U/mL penicillin and 50 µg/mL streptomycin, at 37 °C under a 5% CO2 atmosphere.
To assay the effect of the different compounds against amastigotes, which infect splenic cells, these cells were seeded to confluence into 384-well black optical bottom plates (Thermo Scientific, Waltham, MA, USA) in addition to different concentrations of compound to each well. The viability of amastigotes was calculated by recording their fluorescence at 708 nm in an Odyssey (Li-Cor, NE, USA) infrared imaging system, after 96 h of exposure. Plots of the infrared fluorescence against the concentrations of tested compounds were fitted by nonlinear analysis using the Sigma Plot 10.1 statistical package and used to calculate EC50 values. As well as promastigotes viability, the assays were performed in triplicate.

Assay [1] concerns HEK293 (human embryonic kidney). The assay is described as follows: CCK-8 cytotoxicity assay, HEK293. The format is cell-based. To be noted: HEK293, 48 h, CCK-8, 50% growth inhibition. On the procedure:
The cytotoxicity of the newly synthesized quinolinylphosphonates 7 was evaluated in vitro by testing their antiproliferative activities against several human cancer cell lines: A549 (human lung adenocarcinoma cells), SKOV3 (human ovarian carcinoma), and HEK293 (human embryonic kidney). In order to analyze the selective cytotoxicity facing exclusively cancerous cell lines, cytotoxicity against non-cancerous cell lines (MRC-5, lung fibroblast cells) was also evaluated. Cell counting kit (CCK-8) assay was employed to assess growth inhibition and, cell proliferation inhibitory activities of compounds that are listed in Table 1 as IC50 values. […] According to the data presented in Table 1, in general, all these phosphorated derivatives present higher selective cytotoxicity in the A549 cell line than in the other two cell lines, SKOV3 and HEK293, although slight differences are observed compared to human ovarian carcinoma (SKOV3).
Cells were cultured according to the supplier’s instructions, A549 (ATCC® CCL-185), SKOV3 (ATCC® HTB-77), HEK293 (CLS GmbH), MRC-5 (ATCC® CCL-171™). Cells were seeded in 96-well plates at a density of 2–2.5 × 10^3 cells per well and incubated overnight in 0.1 mL of media supplied with 10% Fetal Bovine Serum (Lonza, Basel, Switzerland) in a 5% CO2 incubator at 37 °C. On day 2, drugs (concentration between 0.5–50 μM) were added and samples were incubated for 48 h. After treatment, 10 μL of cell counting kit-8 was added to each well for an additional 2 h incubation at 37 °C. The absorbance of each well was determined by an Automatic Elisa Reader System at 450 nm wavelength. CPT was purchased from Sigma-Aldrich and used as a positive control.

Each structure is given as a SMILES string.

As for `CCOP(=O)(OCC)c1ccc2nc(-c3ccc(F)c(F)c3)cc(-c3ccc(F)cc3)c2c1` [7u, Diethyl (2-(3,4-difluorophenyl)-4-(4-fluorophenyl)quinolin-6-yl)phosphonate], in the assay with murine splenocytes, the IC50 is more than 100 µM and the “SI (selectivity index)” value was more than 3.8. Also, the EC50 with L. infantum amastigotes was found to be 26.4 ± 2.2 µM. For the same compound, the IC50 in assay [1] was more than 50 µM.

Regarding `CCOP(=O)(OCC)c1ccc2nc(-c3ccc(F)cc3)cc(-c3ccc(C)cc3)c2c1` [7v, Diethyl (2-(4-fluorophenyl)-4-(p-tolyl)quinolin-6-yl)phosphonate], in the assay on murine splenocytes, the IC50 is 11.2 ± 4.42 µM and the “SI (selectivity index)” value came to 0.6. Besides, it took 17.6 ± 7.81 µM to reach a half-maximal effect in the assay with L. infantum amastigotes (EC50). Besides, in assay [1], the IC50 is more than 50 µM.

For `CCOP(=O)(OCC)c1ccc2nc(-c3ccc(F)c(F)c3)cc(-c3ccc(C)cc3)c2c1` [7x, Diethyl (2-(3,4-difluorophenyl)-4-(p-tolyl)quinolin-6-yl)phosphonate], the IC50 with murine splenocytes was 32.3 ± 3.36 µM; in assay [1], more than 50 µM. Also, in the assay on murine splenocytes, the “SI (selectivity index)” value is 1. For the same compound, it took 33 ± 6.55 µM to reach a half-maximal effect with L. infantum amastigotes (EC50).
